From PMC2819846 (Mutation research, 2008)
Where two headings read alike, the source gives them in different places.

How the values were obtained:
[1] = tested on: Salmonella; conditions: cited from earlier work
[2] = tested on: DNA from Salmonella TA100; test: Abasic sites by aldehydic-site assay in DNA of treated TA100; type: cell-based; conditions: DMSO 5.9 ± 0.33
[3] = tested on: Salmonella TA100; test: Salmonella plate-incorporation mutagenicity assay, strain TA100; type: cell-based; conditions: for Mutagenic potency, Revertants/µg ± S.E., TA100 / Mutagenicity call TA100: plate-incorporation, +S9
[4] = tested on: Salmonella TA104; test: Salmonella plate-incorporation mutagenicity assay, strain TA104, with S9 mix; type: cell-based; conditions: for Mutagenic potency, Revertants/µg ± S.E., TA104 / Mutagenicity call TA104: plate-incorporation, +S9
[5] = tested on: DNA from Salmonella TA100; test: Stable DNA adducts by 32P-postlabeling in DNA of treated TA100; type: cell-based; conditions: DMSO 0.024 ± 0.000
[6] = tested on: Salmonella TA98; test: Salmonella plate-incorporation mutagenicity assay, strain TA98, with S9 mix; type: cell-based
[7] = tested on: strain TA100; type: cell-based, Salmonella; conditions: TA100 liquid-suspension; for Rev/10^6 survivors: DMSO 0.8; for Percent survival: DMSO 100
[8] = TA100 +S9, Test 1, 2 µg/plate, zero-dose 99/110/110
[9] = TA100 +S9, Test 1, 5 µg/plate, zero-dose 99/110/110
[10] = TA100 +S9, Test 1, 10 µg/plate, zero-dose 99/110/110
[11] = TA100 +S9, Test 1, 20 µg/plate, zero-dose 99/110/110
[12] = TA100 +S9, Test 1, 40 µg/plate, zero-dose 99/110/110
[13] = TA100 +S9, Test 1, 80 µg/plate, zero-dose 99/110/110
[14] = TA100 +S9, Test 2, 0.5 µg/plate, zero-dose 84/78/80
[15] = TA100 +S9, Test 2, 1 µg/plate, zero-dose 84/78/80
[16] = TA100 +S9, Test 2, 5 µg/plate, zero-dose 84/78/80
[17] = TA100 +S9, Test 3, 0.5 µg/plate, zero-dose 127/118/125
[18] = TA100 +S9, Test 3, 1 µg/plate, zero-dose 127/118/125
[19] = TA100 +S9, Test 3, 5 µg/plate, zero-dose 127/118/125
[20] = TA104 +S9, Test 3, 0.5 µg/plate, zero-dose 402/395/336
[21] = TA104 +S9, Test 3, 1 µg/plate, zero-dose 402/395/336
[22] = TA104 +S9, Test 3, 5 µg/plate, zero-dose 402/395/336
[23] = TA98 +S9, Test 1, 2 µg/plate, zero-dose 33/40/39
[24] = TA98 +S9, Test 1, 5 µg/plate, zero-dose 33/40/39
[25] = TA98 +S9, Test 1, 10 µg/plate, zero-dose 33/40/39
[26] = TA98 +S9, Test 1, 20 µg/plate, zero-dose 33/40/39
[27] = TA98 +S9, Test 1, 40 µg/plate, zero-dose 33/40/39
[28] = TA98 +S9, Test 1, 80 µg/plate, zero-dose 33/40/39
[29] = TA98 +S9, Test 2, 5 µg/plate, zero-dose 43/41/30
[30] = TA98 +S9, Test 3, 5 µg/plate, zero-dose 49/50/50

In the case of `O[C@H]1C=Cc2ccc3c(sc4ccccc43)c2[C@@H]1O` [[2,1]BNT-1,2-diol], the “Mutagenicity in Salmonella TA100” value ([1]; TA100) is given as “not mutagenic”.

With `c1ccc2c(c1)ccc1ccc3ccccc3c12` [B[c]P, Benzo[c]phenanthrene] the “Abasic sites/10^5 nucleotides ± S.E” value ([2]; TA100, 20 µg/ml) was 3.3 ± 0.12 sites/10^5 nucleotides, the Rev/plate [3, 8] was 251 rev/plate and the Rev/plate [3, 9] was 388 rev/plate. It also gave a Rev/plate [3, 10] of 467 rev/plate, a Rev/plate [3, 11] of 503 rev/plate and a Rev/plate [3, 12] of 494 rev/plate. For the same compound, the Rev/plate [3, 13] was 354 rev/plate, the Rev/plate [3, 14] was 97/85 and the Rev/plate [3, 15] was 114/78. For the same compound, the Rev/plate ([3]; TA100 +S9, Test 2, 2 µg/plate, zero-dose 84/78/80) was 117/143, the Rev/plate [3, 16] was 300/204 and the Rev/plate [3, 17] was 180/190. For the same compound, the Rev/plate [3, 18] was 250/217, the Rev/plate ([3]; TA100 +S9, Test 3, 2 µg/plate, zero-dose 127/118/125) was 300/303 and the Rev/plate [3, 19] was 510/499. For the same compound, the “Mutagenic potency, Revertants/µg ± S.E., TA100” value [3] was 56.4 ± 12.1 rev/µg, the “Mutagenicity call TA100” value [3] was “(+) (Called mutagenic (+) based on showing reproducible, dose-related increases in rev/plate that reached or exceeded 2-fold relative to zero-dose controls)” and the Rev/plate ([4]; TA104 +S9, Test 2, 0.5 µg/plate, zero-dose 276/260/270) was 432/407. The Rev/plate ([4]; TA104 +S9, Test 2, 1 µg/plate, zero-dose 276/260/270) was 504/506, the Rev/plate ([4]; TA104 +S9, Test 2, 2 µg/plate, zero-dose 276/260/270) was 570/609 and the Rev/plate ([4]; TA104 +S9, Test 2, 5 µg/plate, zero-dose 276/260/270) was 753/894. For the same compound, the Rev/plate [4, 20] was 523/486, the Rev/plate [4, 21] was 636/581 and the Rev/plate ([4]; TA104 +S9, Test 3, 2 µg/plate, zero-dose 402/395/336) was 588/660. For the same compound, the Rev/plate [4, 22] was 850/824, the “Mutagenic potency, Revertants/µg ± S.E., TA104” value [4] was 241 ± 25 rev/µg and the “Mutagenicity call TA104” value [4] was “(+) (Called mutagenic (+) based on showing reproducible, dose-related increases in rev/plate that reached or exceeded 2-fold relative to zero-dose controls)”. For the same compound, the “Stable adducts/10^8 nucleotides ± S.E” value ([5]; TA100, 20 µg/ml) was 1.600 ± 0.040 adducts/10^8 nucleotides, the Rev/plate [6, 23] was 37 rev/plate and the Rev/plate [6, 24] was 43 rev/plate. For the same compound, the Rev/plate [6, 25] was 57 rev/plate, the Rev/plate [6, 26] was 60 rev/plate and the Rev/plate [6, 27] was 50 rev/plate. The Rev/plate [6, 28] was 35 rev/plate, the Rev/plate ([6]; TA98 +S9, Test 2, 0.5 µg/plate, zero-dose 43/41/30) was 44/36 and the Rev/plate ([6]; TA98 +S9, Test 2, 1 µg/plate, zero-dose 43/41/30) was 41/35. For the same compound, the Rev/plate ([6]; TA98 +S9, Test 2, 2 µg/plate, zero-dose 43/41/30) was 38/37, the Rev/plate [6, 29] was 56/50 and the Rev/plate ([6]; TA98 +S9, Test 3, 0.5 µg/plate, zero-dose 49/50/50) was 49/36. For the same compound, the Rev/plate ([6]; TA98 +S9, Test 3, 1 µg/plate, zero-dose 49/50/50) was 52/54, the Rev/plate ([6]; TA98 +S9, Test 3, 2 µg/plate, zero-dose 49/50/50) was 60/50 and the Rev/plate [6, 30] was 87/61. For the same compound, the “Mutagenic potency, Revertants/µg ± S.E., TA98” value ([6]; plate-incorporation, +S9) was 1.2 ± 1.3 rev/µg, the “Mutagenicity in Salmonella (early studies)” value [1] was “mutagenic” and the “Fold increase in mutant frequency relative to DMSO-treated cells” value ([7]; 20 µg/ml) was 3.9 fold. The “Rev/10^6 survivors” value ([7]; 20 µg/ml) was 3.1 Rev/10^6 survivors and the Percent survival ([7]; 20 µg/ml) was 71%.

With `O[C@@H]1C=Cc2c(ccc3ccc4ccccc4c23)[C@H]1O` (racemic) [B[c]P 3,4-diol, (± )-trans-3,4-Dihydrobenzo[c]phenanthrene 3,4-diol] the “Abasic sites/10^5 nucleotides ± S.E” value ([2]; TA100, 2 µg/ml) was 4.2 ± 0.16 sites/10^5 nucleotides, the “Abasic sites/10^5 nucleotides ± S.E” value ([2]; TA100, 5 µg/ml) was 5.3 ± 0.27 sites/10^5 nucleotides and the Rev/plate [3, 8] was 694 rev/plate. The Rev/plate [3, 9] was 1002 rev/plate, the Rev/plate [3, 10] was 1067 rev/plate and the Rev/plate [3, 11] was 942 rev/plate. The Rev/plate [3, 12] was 381 rev/plate, the Rev/plate [3, 13] was 100 rev/plate and the Rev/plate [3, 14] was 151/162. For the same compound, the Rev/plate [3, 15] was 244/241, the Rev/plate ([3]; TA100 +S9, Test 2, 2.5 µg/plate, zero-dose 84/78/80) was 533/604 and the Rev/plate [3, 16] was 598/153. The Rev/plate [3, 17] was 335/357, the Rev/plate [3, 18] was 474/494 and the Rev/plate ([3]; TA100 +S9, Test 3, 2.5 µg/plate, zero-dose 127/118/125) was 848/945. The Rev/plate [3, 19] was 1216/1218, the Rev/plate ([3]; TA100 +S9, Test 4, 0.5 µg/plate, zero-dose 112/140/115) was 328/304 and the Rev/plate ([3]; TA100 +S9, Test 4, 1 µg/plate, zero-dose 112/140/115) was 613/577. For the same compound, the Rev/plate ([3]; TA100 +S9, Test 4, 2.5 µg/plate, zero-dose 112/140/115) was 938/941, the Rev/plate ([3]; TA100 +S9, Test 4, 5 µg/plate, zero-dose 112/140/115) was 1117/1140 and the “Mutagenic potency, Revertants/µg ± S.E., TA100” value [3] was 268 ± 46 rev/µg. For the same compound, the “Mutagenicity call TA100” value [3] was “(+) (Called mutagenic (+) based on showing reproducible, dose-related increases in rev/plate that reached or exceeded 2-fold relative to zero-dose controls)”, the Rev/plate ([4]; TA104 +S9, Test 1, 0.5 µg/plate, zero-dose 379/400/370) was 770/707 and the Rev/plate ([4]; TA104 +S9, Test 1, 1 µg/plate, zero-dose 379/400/370) was 1007/1137. The Rev/plate ([4]; TA104 +S9, Test 1, 2.5 µg/plate, zero-dose 379/400/370) was 1618/1616, the Rev/plate ([4]; TA104 +S9, Test 1, 5 µg/plate, zero-dose 379/400/370) was 1925/2036 and the Rev/plate [4, 20] was 663/615. For the same compound, the Rev/plate [4, 21] was 923/920, the Rev/plate ([4]; TA104 +S9, Test 3, 2.5 µg/plate, zero-dose 402/395/336) was 1368/1509 and the Rev/plate [4, 22] was 1781/1775. For the same compound, the Rev/plate ([4]; TA104 +S9, Test 4, 0.5 µg/plate, zero-dose 482/455/462) was 655/635, the Rev/plate ([4]; TA104 +S9, Test 4, 1 µg/plate, zero-dose 482/455/462) was 913/888 and the Rev/plate ([4]; TA104 +S9, Test 4, 2.5 µg/plate, zero-dose 482/455/462) was 1375/1312. The Rev/plate ([4]; TA104 +S9, Test 4, 5 µg/plate, zero-dose 482/455/462) was 1807/1818, the “Mutagenic potency, Revertants/µg ± S.E., TA104” value [4] was 552 ± 62 rev/µg and the “Mutagenicity call TA104” value [4] was “(+) (Called mutagenic (+) based on showing reproducible, dose-related increases in rev/plate that reached or exceeded 2-fold relative to zero-dose controls)”. The “Stable adducts/10^8 nucleotides ± S.E” value ([5]; TA100, 2 µg/ml) was 5.900 ± 0.230 adducts/10^8 nucleotides, the “Stable adducts/10^8 nucleotides ± S.E” value ([5]; TA100, 5 µg/ml) was 4.500 ± 0.034 adducts/10^8 nucleotides and the Rev/plate [6, 23] was 47 rev/plate. The Rev/plate [6, 24] was 100 rev/plate, the Rev/plate [6, 25] was 120 rev/plate and the Rev/plate [6, 26] was 226 rev/plate. For the same compound, the Rev/plate [6, 27] was 303 rev/plate, the Rev/plate [6, 28] was 417 rev/plate and the Rev/plate [6, 29] was 120/112. The Rev/plate ([6]; TA98 +S9, Test 2, 10 µg/plate, zero-dose 43/41/30) was 180/199, the Rev/plate ([6]; TA98 +S9, Test 2, 20 µg/plate, zero-dose 43/41/30) was 310/260 and the Rev/plate ([6]; TA98 +S9, Test 2, 40 µg/plate, zero-dose 43/41/30) was 460/414. The Rev/plate ([6]; TA98 +S9, Test 2, 80 µg/plate, zero-dose 43/41/30) was 492/423, the Rev/plate [6, 30] was 145/173 and the Rev/plate ([6]; TA98 +S9, Test 3, 10 µg/plate, zero-dose 49/50/50) was 238/242. For the same compound, the Rev/plate ([6]; TA98 +S9, Test 3, 20 µg/plate, zero-dose 49/50/50) was 350/328, the Rev/plate ([6]; TA98 +S9, Test 3, 40 µg/plate, zero-dose 49/50/50) was 458/504 and the Rev/plate ([6]; TA98 +S9, Test 3, 80 µg/plate, zero-dose 49/50/50) was 509/597. The “Mutagenic potency, Revertants/µg ± S.E., TA98” value ([6]; plate-incorporation, +S9) was 11.1 ± 3.0 rev/µg, the “Mutagenicity call TA98” value ([6]; plate-incorporation, +S9) was “(+) (Called mutagenic (+) based on showing reproducible, dose-related increases in rev/plate that reached or exceeded 2-fold relative to zero-dose controls)” and the “Mutagenicity in Salmonella (early studies)” value [1] was “mutagenic”. The Percent survival ([7]; 2 µg/ml) was 56%, the “Fold increase in mutant frequency relative to DMSO-treated cells” value ([7]; 5 µg/ml) was 23.4 fold and the “Rev/10^6 survivors” value ([7]; 5 µg/ml) was 18.7 Rev/10^6 survivors. The Percent survival ([7]; 5 µg/ml) was 20%.
